Test [1] deals with fibroid xenografts. Put plainly: Xenograft mouse fibroid model, tumor weight (Example 2). The class given is in vivo, ovariectomized CB-17 SCID/Beige mice. Conditions: 5 mg/kg i.p. (every other day / three times per week), two months, vs matched controls. From the text: Portions of uterine fibroids (intramural, 2-5 cm in diameters) (n=13) were obtained from patients at Harbor-UCLA Medical Center. Prior approval from the Institutional Review Board (18CR-31752-01 R) at the Lundquist Institute was obtained. Informed consent was obtained from all the patients participating in the study who were not taking any hormonal medications for at least 3 months prior to surgery. The fibroids used in this study were from African Americans (n=3), Hispanics (n=9) and Asians (n=1) women aged 35-57 years (mean 46±6.5 years). The MED12 mutation status of all fibroids was determined by PCR amplification and Sanger sequencing (Laragen Inc. Culver City, CA). […] The missense mutations in exon 2 included c.130G>A (p.Gly44Ser) (n=4), c.131 G>A (p.Gly44Asp) (n=2) and c.131 G>T (p.Gly44Val) (n=1). The tissues were snap frozen and stored in liquid nitrogen for further analysis as previously described (2, 3).
Portions of liver, kidney, heart were dissected and frozen.

For test [2], the system named is fibroid xenografts. Kind of test: Quantitative RT-PCR of xenografts (Example 2). The class given is in vivo, SCID/Beige mice. The note with it: 5 mg/kg, 8 weeks, n=13. Here is the method: Total RNA was extracted from the xenografts using TRIzol (Thermo Fisher Scientific Inc., Waltham, MA). RNA concentration and integrity was determined using a Nanodrop 2000c spectrophotometer (Thermo Scientific, Wilmington, DE) and Agilent 2100 Bioanalyzer (Agilent Technologies, Santa Clara, CA) as previously described (7, 8). Briefly, 2 μg of RNA was reverse transcribed using random primers for selected genes according to the manufacturer's guidelines (Applied Biosystems, Carlsbad, CA). Quantitative RT-PCR was carried out using SYBR gene expression master mix (Applied Biosystems). Reactions were incubated for 10 min at 95° C. followed by 40 cycles for 15 seconds at 95° C. and 1 min at 60° C. The expression levels of selected genes were quantified using Invitrogen StepOne System with FBXW2 (F-box and WD repeat domain containing 2) used for normalization (9). All reactions were run in triplicate and relative mRNA expression was determined using the comparative cycle threshold method (2−ΔΔCq), as recommended by the supplier (Applied Biosystems). Values were expressed as fold change compared to the control group. […]

For the compound `Cc1ccc(S(=O)(=O)/C=C/C#N)cc1` [Bay 11-7082], the “reduction in tumor weight” value in test [1] was 40%. The “mRNA expression of COL1A1, COL3A1, FN1, TGF-β3, CCND1, CDK2, E2F1, EZH2, MyD88 and SPARC” value in test [2] is reported as “significant decrease”.
